# Tested on: 648629-189-R-J1-PDC spheroids with HUVEC/MSC, viability
# Assay: Anticancer human tumor 648629-189-R-J1-PDC patient-derived bladder carcinoma cell line growth inhibition [PI3K]
# Details: for IC50: curve of first compound; for viability, T/C: stronger effect = lower value
# How it was run: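 We assembled tumor spheroids that included a stromal compartment of HUVEC and MSCs, then exposed them to targeted agents alone and together with PI3K pathway inhibitors. Concentration series descended by half-log from clinically achievable Cmax levels. Viability served as the endpoint.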
# [1] = second compound 0.0316 µM, first compound 0.0316 µM
# [2] = second compound 0.0316 µM, first compound 0.1 µM
# [3] = second compound 0.0316 µM, first compound 0.316 µM
# [4] = second compound 0.0316 µM, first compound 1 µM
# [5] = second compound 0.0316 µM, first compound 3.16 µM
# [6] = second compound 0.0316 µM, first compound 10 µM
# [7] = second compound 0.1 µM, first compound 0.0316 µM
# [8] = second compound 0.1 µM, first compound 0.1 µM
# [9] = second compound 0.1 µM, first compound 0.316 µM
# [10] = second compound 0.1 µM, first compound 1 µM
# [11] = second compound 0.1 µM, first compound 3.16 µM
# [12] = second compound 0.1 µM, first compound 10 µM
# [13] = second compound 0.316 µM, first compound 0.0316 µM
# [14] = second compound 0.316 µM, first compound 0.1 µM
# [15] = second compound 0.316 µM, first compound 0.316 µM
# [16] = second compound 0.316 µM, first compound 1 µM
# [17] = second compound 0.316 µM, first compound 3.16 µM
# [18] = second compound 0.316 µM, first compound 10 µM
# [19] = second compound 1 µM, first compound 0.0316 µM
# [20] = second compound 1 µM, first compound 0.1 µM
# [21] = second compound 1 µM, first compound 0.316 µM
# [22] = second compound 1 µM, first compound 1 µM
# [23] = second compound 1 µM, first compound 3.16 µM
# [24] = second compound 1 µM, first compound 10 µM
# [25] = second compound 3.16 µM, first compound 0.0316 µM
# [26] = second compound 3.16 µM, first compound 0.1 µM
# [27] = second compound 3.16 µM, first compound 0.316 µM
# [28] = second compound 3.16 µM, first compound 1 µM
# [29] = second compound 3.16 µM, first compound 3.16 µM
# [30] = second compound 3.16 µM, first compound 10 µM
# [31] = second compound 10 µM, first compound 0.0316 µM
# [32] = second compound 10 µM, first compound 0.1 µM
# [33] = second compound 10 µM, first compound 0.316 µM
# [34] = second compound 10 µM, first compound 1 µM
# [35] = second compound 10 µM, first compound 3.16 µM
# [36] = second compound 10 µM, first compound 10 µM
# 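Note: spheroids exposed to agents for seven days before reading.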
# 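Throughout, for viability, T/C: percent of vehicle control luminescence where 100% = DMSO treated spheroids.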
smiles,measurement,setting,value
C#Cc1c(F)ccc2cc(O)cc(-c3ncc4c(N5CC6CCC(C5)N6)nc(OCC56CCCN5CC(F)C6)nc4c3F)c12 (stereo not drawn) + CC(Nc1ncnc2nc[nH]c12)c1cc2cccc(Cl)c2c(=O)n1-c1ccccc1,IC50,second compound 0.0316 µM,> 10 µM
same,IC50,second compound 0.1 µM,> 10 µM
same,IC50,second compound 0.316 µM,> 10 µM
same,IC50,second compound 1 µM,> 10 µM
same,IC50,second compound 3.16 µM,> 10 µM
same,IC50,second compound 10 µM,> 10 µM
same,"viability, T/C",[1],116%
same,"viability, T/C",[2],114%
same,"viability, T/C",[3],103%
same,"viability, T/C",[4],107%
same,"viability, T/C",[5],105%
same,"viability, T/C",[6],117%
same,"viability, T/C",[7],116%
same,"viability, T/C",[8],100%
same,"viability, T/C",[9],104%
same,"viability, T/C",[10],106%
same,"viability, T/C",[11],117%
same,"viability, T/C",[12],110%
same,"viability, T/C",[13],102%
same,"viability, T/C",[14],110%
same,"viability, T/C",[15],101%
same,"viability, T/C",[16],113%
same,"viability, T/C",[17],116%
same,"viability, T/C",[18],111%
same,"viability, T/C",[19],92.8%
same,"viability, T/C",[20],104%
same,"viability, T/C",[21],107%
same,"viability, T/C",[22],114%
same,"viability, T/C",[23],107%
same,"viability, T/C",[24],94.4%
same,"viability, T/C",[25],92%
same,"viability, T/C",[26],91.4%
same,"viability, T/C",[27],90.7%
same,"viability, T/C",[28],90.1%
same,"viability, T/C",[29],93.4%
same,"viability, T/C",[30],88.1%
same,"viability, T/C",[31],90.7%
same,"viability, T/C",[32],86.1%
same,"viability, T/C",[33],75.7%
same,"viability, T/C",[34],102%
same,"viability, T/C",[35],92.5%
same,"viability, T/C",[36],80.3%
C=CC(=O)N1CCN(c2nc(=O)n(-c3c(C)ccnc3C(C)C)c3nc(-c4c(O)cccc4F)c(F)cc23)C(C)C1 (stereo not drawn) + CC(Nc1ncnc2nc[nH]c12)c1cc2cccc(Cl)c2c(=O)n1-c1ccccc1,IC50,second compound 0.0316 µM,> 10 µM
same,IC50,second compound 0.1 µM,> 10 µM
same,IC50,second compound 0.316 µM,> 10 µM
same,IC50,second compound 1 µM,> 10 µM
same,IC50,second compound 3.16 µM,> 10 µM
same,IC50,second compound 10 µM,> 10 µM
same,"viability, T/C",[1],106%
same,"viability, T/C",[2],95.3%
same,"viability, T/C",[3],107%
same,"viability, T/C",[4],109%
same,"viability, T/C",[5],103%
same,"viability, T/C",[6],96.9%
same,"viability, T/C",[7],102%
same,"viability, T/C",[8],101%
same,"viability, T/C",[9],125%
same,"viability, T/C",[10],104%
same,"viability, T/C",[11],108%
same,"viability, T/C",[12],87.5%
same,"viability, T/C",[13],95.4%
same,"viability, T/C",[14],115%
same,"viability, T/C",[15],112%
same,"viability, T/C",[16],103%
same,"viability, T/C",[17],112%
same,"viability, T/C",[18],103%
same,"viability, T/C",[19],120%
same,"viability, T/C",[20],99.3%
same,"viability, T/C",[21],107%
same,"viability, T/C",[22],107%
same,"viability, T/C",[23],101%
same,"viability, T/C",[24],92.1%
same,"viability, T/C",[25],103%
same,"viability, T/C",[26],92.1%
same,"viability, T/C",[27],104%
same,"viability, T/C",[28],101%
same,"viability, T/C",[29],106%
same,"viability, T/C",[30],98.8%
same,"viability, T/C",[31],94.2%
same,"viability, T/C",[32],86.9%
same,"viability, T/C",[33],96.4%
same,"viability, T/C",[34],95.6%
same,"viability, T/C",[35],89.8%
same,"viability, T/C",[36],88.3%
CC(Cn1ccc(-c2ccc(C#N)c(Cl)c2)n1)NC(=O)c1cc(C(C)O)[nH]n1 (stereo not drawn) + CC(Nc1ncnc2nc[nH]c12)c1cc2cccc(Cl)c2c(=O)n1-c1ccccc1,IC50,second compound 0.0316 µM,> 10 µM
same,IC50,second compound 0.1 µM,> 10 µM
same,IC50,second compound 0.316 µM,> 10 µM
same,IC50,second compound 1 µM,> 10 µM
same,IC50,second compound 3.16 µM,> 10 µM
same,IC50,second compound 10 µM,> 10 µM
same,"viability, T/C",[1],99.4%
same,"viability, T/C",[2],91.1%
same,"viability, T/C",[3],116%
same,"viability, T/C",[4],94%
same,"viability, T/C",[5],105%
same,"viability, T/C",[6],84.5%
same,"viability, T/C",[7],99%
same,"viability, T/C",[8],89.3%
same,"viability, T/C",[9],115%
same,"viability, T/C",[10],108%
same,"viability, T/C",[11],108%
same,"viability, T/C",[12],80.5%
same,"viability, T/C",[13],97.9%
same,"viability, T/C",[14],99%
same,"viability, T/C",[15],95.2%
same,"viability, T/C",[16],119%
same,"viability, T/C",[17],99.4%
same,"viability, T/C",[18],87.3%
same,"viability, T/C",[19],107%
same,"viability, T/C",[20],93.8%
same,"viability, T/C",[21],106%
same,"viability, T/C",[22],113%
same,"viability, T/C",[23],90.8%
same,"viability, T/C",[24],80%
same,"viability, T/C",[25],92.2%
same,"viability, T/C",[26],96%
same,"viability, T/C",[27],94.7%
same,"viability, T/C",[28],91.3%
same,"viability, T/C",[29],92.4%
same,"viability, T/C",[30],69.5%
same,"viability, T/C",[31],78.4%
same,"viability, T/C",[32],93.3%
same,"viability, T/C",[33],86.8%
same,"viability, T/C",[34],79.7%
same,"viability, T/C",[35],89.7%
same,"viability, T/C",[36],69%
CC1(C)CCC(Nc2ncc(C(F)(F)F)c(-c3c[nH]c4c(P(C)(C)=O)c(C#N)ccc34)n2)CN1 (stereo not drawn) + CC(Nc1ncnc2nc[nH]c12)c1cc2cccc(Cl)c2c(=O)n1-c1ccccc1,IC50,second compound 0.0316 µM,< 0.0316 µM
same,IC50,second compound 0.1 µM,< 0.0316 µM
same,IC50,second compound 0.316 µM,< 0.0316 µM
same,IC50,second compound 1 µM,< 0.0316 µM
same,IC50,second compound 3.16 µM,< 0.0316 µM
same,IC50,second compound 10 µM,< 0.0316 µM
same,"viability, T/C",[1],35.1%
same,"viability, T/C",[2],29%
same,"viability, T/C",[3],35.4%
same,"viability, T/C",[4],35.2%
same,"viability, T/C",[5],43%
same,"viability, T/C",[6],11.7%
same,"viability, T/C",[7],36.7%
same,"viability, T/C",[8],33.5%
same,"viability, T/C",[9],28.3%
same,"viability, T/C",[10],36%
same,"viability, T/C",[11],39.6%
same,"viability, T/C",[12],10.8%
same,"viability, T/C",[13],32%
same,"viability, T/C",[14],29.4%
same,"viability, T/C",[15],29.1%
same,"viability, T/C",[16],31.8%
same,"viability, T/C",[17],39.1%
same,"viability, T/C",[18],11.5%
same,"viability, T/C",[19],30.6%
same,"viability, T/C",[20],32.4%
same,"viability, T/C",[21],29.8%
same,"viability, T/C",[22],31.6%
same,"viability, T/C",[23],42%
same,"viability, T/C",[24],10.1%
same,"viability, T/C",[25],34%
same,"viability, T/C",[26],29.2%
same,"viability, T/C",[27],28.9%
same,"viability, T/C",[28],30.7%
same,"viability, T/C",[29],36.2%
same,"viability, T/C",[30],7.47%
same,"viability, T/C",[31],39.7%
same,"viability, T/C",[32],32%
same,"viability, T/C",[33],33.3%
same,"viability, T/C",[34],30.2%
same,"viability, T/C",[35],34.7%
same,"viability, T/C",[36],4.52%

# From PubChem BioAssay AID1963974 (Molecular Pharmacology Branch, DTP, NCI, 2024)
